Data as given in ChEMBL document CHEMBL1136340, “Indole-2-carboxamides as novel NR2B selective NMDA receptor antagonists” (Bioorg Med Chem Lett, 2003).

Experiments:
[1] = target: Glutamate [NMDA] receptor; assay: Inhibition of [3H]Ro-256981 binding to N-methyl-D-aspartate glutamate receptor; type: protein-complex assay
[2] = target: Glutamate NMDA receptor; GRIN1/GRIN2B (Homo sapiens, UniProt Q05586+Q13224); assay: Inhibition of N-methyl-D-aspartate glutamate receptor-evoked increase of intracellular Ca+ in cells expressing NMDA glutamate receptor 1/2B; type: functional, cell-based
Glutamate NMDA receptor; GRIN1/GRIN2B, sequence (Q13224 whole entry, other chains not shown): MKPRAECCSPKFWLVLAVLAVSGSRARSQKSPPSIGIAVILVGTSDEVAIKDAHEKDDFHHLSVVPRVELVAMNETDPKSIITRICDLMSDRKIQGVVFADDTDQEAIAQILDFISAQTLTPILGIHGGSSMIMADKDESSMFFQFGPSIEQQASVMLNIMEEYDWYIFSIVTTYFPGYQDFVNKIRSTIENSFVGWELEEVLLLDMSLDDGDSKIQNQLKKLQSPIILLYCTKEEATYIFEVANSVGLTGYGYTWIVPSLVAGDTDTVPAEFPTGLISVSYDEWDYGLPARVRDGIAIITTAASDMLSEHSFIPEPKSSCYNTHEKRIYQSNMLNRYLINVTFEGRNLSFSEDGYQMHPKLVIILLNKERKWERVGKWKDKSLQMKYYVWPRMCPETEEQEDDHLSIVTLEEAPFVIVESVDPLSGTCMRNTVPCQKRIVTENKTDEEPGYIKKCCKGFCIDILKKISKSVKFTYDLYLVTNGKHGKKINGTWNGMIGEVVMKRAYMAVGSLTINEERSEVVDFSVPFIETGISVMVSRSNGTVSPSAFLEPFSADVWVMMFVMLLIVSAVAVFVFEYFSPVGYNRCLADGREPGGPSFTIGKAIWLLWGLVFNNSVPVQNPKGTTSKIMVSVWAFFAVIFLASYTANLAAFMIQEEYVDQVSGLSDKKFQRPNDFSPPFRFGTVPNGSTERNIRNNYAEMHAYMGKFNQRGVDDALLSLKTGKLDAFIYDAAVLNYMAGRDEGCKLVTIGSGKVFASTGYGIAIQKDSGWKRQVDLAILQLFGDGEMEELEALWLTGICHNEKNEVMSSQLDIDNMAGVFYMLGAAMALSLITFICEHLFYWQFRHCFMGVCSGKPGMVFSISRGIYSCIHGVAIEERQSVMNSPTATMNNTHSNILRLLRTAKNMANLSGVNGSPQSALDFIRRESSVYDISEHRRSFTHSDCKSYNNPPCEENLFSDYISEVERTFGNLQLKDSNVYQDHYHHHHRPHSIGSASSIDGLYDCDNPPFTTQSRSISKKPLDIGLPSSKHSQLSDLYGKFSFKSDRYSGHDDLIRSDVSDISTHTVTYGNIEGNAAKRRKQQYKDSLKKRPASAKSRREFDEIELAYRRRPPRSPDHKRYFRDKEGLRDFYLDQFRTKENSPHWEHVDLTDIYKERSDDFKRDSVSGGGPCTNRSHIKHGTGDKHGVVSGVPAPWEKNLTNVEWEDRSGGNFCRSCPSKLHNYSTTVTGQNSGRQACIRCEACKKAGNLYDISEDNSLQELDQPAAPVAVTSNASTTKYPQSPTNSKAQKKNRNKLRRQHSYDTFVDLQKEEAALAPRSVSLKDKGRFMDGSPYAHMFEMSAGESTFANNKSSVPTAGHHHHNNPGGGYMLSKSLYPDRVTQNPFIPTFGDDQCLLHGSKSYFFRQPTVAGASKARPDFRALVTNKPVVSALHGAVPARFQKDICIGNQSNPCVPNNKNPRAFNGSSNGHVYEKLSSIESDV

O=c1[nH]c2ccc([S+]([O-])CCN3CCC(Cc4ccc(F)cc4)CC3)cc2o1 (stereo not drawn) [BESONPRODIL]
IC50 [1]: 4 nM | IC50 [2]: 8 nM

O=C(c1cc2c(O)cccc2[nH]1)N1CCC(Cc2ccccc2)CC1
IC50 [1]: 18 nM | IC50 [2]: 39 nM

O=C(c1cc2ccc(O)cc2[nH]1)N1CCC(Cc2ccccc2)CC1
IC50 [1]: 12 nM | IC50 [2]: 20 nM

O=C(/C=C/c1ccc(O)cc1)N1CCC(Cc2ccccc2)CC1
IC50 [1]: 196 nM | IC50 [2]: 104 nM

O=C(c1cc2cccc(O)c2[nH]1)N1CCC(Cc2ccccc2)CC1
IC50 [1]: 380 nM | IC50 [2]: 77 nM

O=C(c1cc2ccc(O)cc2[nH]1)N1CCC(CCc2ccccc2)CC1
IC50 [1]: 359 nM | IC50 [2]: 24 nM

C[C@@H](CN1CCC(Cc2ccccc2)CC1)[C@@H](O)c1ccc(O)cc1
IC50 [1]: 6 nM | IC50 [2]: 57 nM

O=C(c1cc2ccc(O)cc2[nH]1)N1CCC(OCc2ccccc2)CC1
IC50 [1]: 47 nM | IC50 [2]: 46 nM

O=C(c1cc2ccc(O)cc2[nH]1)N1CCC(c2ccccc2)CC1
IC50 [2]: > 8000 nM

O=C(c1cc2cc(O)ccc2[nH]1)N1CCC(Cc2ccccc2)CC1
IC50 [1]: 31 nM | IC50 [2]: 40 nM

O=C(c1cc2c(O)cc(O)cc2[nH]1)N1CCC(Cc2ccccc2)CC1
IC50 [1]: 6 nM | IC50 [2]: 10 nM

O=C(c1cc2cc(O)cc(O)c2[nH]1)N1CCC(Cc2ccccc2)CC1
IC50 [1]: 106 nM | IC50 [2]: 52 nM
